Data reported in ChEMBL document CHEMBL1137263, “Replacing the cyclohexene-linker of FR181157 leading to novel IP receptor agonists: orally active prostacyclin mimetics. Part 6” (Bioorg Med Chem Lett, 2006).

Tests used:
[1] = Oral bioavailability in rat; format: ADME, organism-based; details: in vivo
[2] = AUC in rat at 1 mg/kg, po; format: ADME, organism-based; set-up: dose 1 mg/kg, route oral; details: plasma
[3] = Cmax in rat at 1 mg/kg, po; format: ADME, organism-based; set-up: dose 1 mg/kg, route oral; details: in vivo
Prostacyclin receptor = Prostacyclin receptor (Homo sapiens, UniProt P43119); experiment: Displacement of [3H]iloprost from cloned human PGI2 receptor
Prostacyclin receptor, sequence (P43119 whole entry): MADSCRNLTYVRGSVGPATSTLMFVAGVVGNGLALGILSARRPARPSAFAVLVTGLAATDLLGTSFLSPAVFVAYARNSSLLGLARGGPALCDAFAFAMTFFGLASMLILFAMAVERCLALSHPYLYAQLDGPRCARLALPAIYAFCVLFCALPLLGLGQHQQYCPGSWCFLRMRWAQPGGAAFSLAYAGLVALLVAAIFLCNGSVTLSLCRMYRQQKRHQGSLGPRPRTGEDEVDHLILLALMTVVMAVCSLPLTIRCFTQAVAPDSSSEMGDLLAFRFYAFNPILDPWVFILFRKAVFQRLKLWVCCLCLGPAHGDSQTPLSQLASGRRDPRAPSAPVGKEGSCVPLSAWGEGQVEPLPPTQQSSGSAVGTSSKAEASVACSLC

Compound	bioavailability [1] [%]	AUC [2] [ng·h/mL]	Cmax [3] [ng/mL]	Ki (Prostacyclin receptor) [µM]
Cl.O=C(O)COc1cccc(CN2CCC[C@@H]2c2nc(-c3ccccc3)c(-c3ccccc3)o2)c1	41	81.7	15.5	–
O=C([O-])COc1cccc(C[C@@H]2CCCC=C2c2nc(-c3ccccc3)c(-c3ccccc3)o2)c1.[Na+]	50	–	–	0.06
O=C(O)COc1cccc(CN2CCC[C@@H]2c2nc(-c3ccccc3)c(-c3ccccc3)o2)c1	–	–	–	0.076
